Experimental data from patent publication US20150335565A1, “IRRITATION MITIGATING POLYMERS AND USES THEREFOR” (LUBRIZOL ADVANCED MATERIALS, INC., priority 2012, published 2015).
Read-outs that look alike come from different tables or passages of the source.

Key:
[1] = MTT tissue viability assay (ET-50 protocol) for skin irritancy; conditions: human
Protocol: (§1) Mitigation of skin irritancy induced by sodium dodecyl sulfate (SDS) surfactant dosed with the polymer of Example 56 is assessed in the Epiderm™ Human Tissue Model (EPI-200) bioassay conducted by MatTek Corporation, Ashland, Mass. The MatTek bioassay utilizes human derived epidermal keratinocytes (NHEK) which have been cultured to form a multilayered, highly differentiated model of the human epidermis.
(§2) The MTT tissue viability assay measures the NAD(P)H dependent microsomal enzyme reduction of MTT (and to a lesser extent, the succinate dehydrogenase reduction of MTT) after exposure to a treated skin culture test sample for various exposure times. The duration of exposure resulting in a 50% decrease in MTT conversion in test formulation treated EpiDerm™ cultures, relative to control cultures, is determined (ET-50).
(§3) A SDS surfactant/polymer test formulation is formulated from the components set forth in Table 10 and evaluated for irritancy potential using the MTT viability assay. Test samples containing neat SDS surfactant (no polymer) are formulated for comparative purposes.
(§4) Skin tissue culture inserts (Cat. No. EPI-200) are pre-incubated in the wells of 6-well plates containing 0.9 ml of MatTek assay medium (Cat. No. EPI-100-ASY) for 1 hr. at 37° C. in a humidified atmosphere of 5% CO2 in air. The 6-well plates containing the tissue culture inserts are removed from the incubator and the assay media is aspirated from the wells and replaced by an additional aliquot of 0.9 ml of pre-warmed (37° C.) assay media. For each exposure time wells are then dosed (2 repetitions) with 100 μl of the test formulations set forth in Table 10 (3 tissue culture wells are dosed with 100 μl ultra-pure water as a negative control for each of the test candidates). In addition, 100 μl of a positive control formulation (1% Triton X-100 in ultrapure water) is dosed into tissue culture wells (3 repetitions for each exposure time), as well as 3 repetitions of ultrapure water as a negative control. The exposure times of the test formulations, negative control and positive control are set forth below.
(§5) MTT assay plates are prepped by preparing a 24-well plate by adding 300 μl of MTT reagent solution to an appropriate number of wells to accommodate the test. The MTT reagent is utilized at a concentration of 1 mg/ml of MTT diluted in Dulbecco's Modified Eagle Medium (DMEM). The MTT/DMEM solution is centrifuged and decanted to remove any precipitate before use.
(§6) After exposure times of 60 (1 hr.), 120 (2 hrs.) and 210 (3.5 hrs.) minutes to the test solutions, the tissue cultures are removed from the incubator and thoroughly rinsed (2 times) with Dulbecco's phosphate buffered saline (DPBS) to remove the test material. The negative control is exposed for 4 hours and the positive control is exposed for time periods of 4, 6, 8, and 10 hours. Any remaining rinse media is decanted from the top of the tissue cultures. Each tissue culture insert is transferred to an appropriately labeled well of the 24-well plate containing the MTT reagent solution and placed back in the incubator. After 30 minutes reaction with the MTT reagent, the tissue cultures are removed from the incubator. Each tissue culture insert is removed from its well and the bottom is gently blotted with a lab tissue. The inserts are immersed into a labeled 24-well extraction plate containing 2 ml of isopropanol extractant solution. […]

[2] = tested on: Epiderm™ Human Tissue Model (EPI-200); test: as above
Protocol: as §1, §2, §3, §4, §5, §6

Compound	viability at 1 hr [1]	viability at 2 hr [1]	viability at 3.5 hr [1]	ET-50 (exposure time which reduces tissue viability to 50%) ([2]; interpolated between exposure times that bracket 50% viability)	ET-50 (exposure time which reduces tissue viability to 50%) [2]
CCCCCCCCCCCCOS(=O)(=O)[O-].[Na+] [Neat Surfactant, sodium dodecyl sulfate]	72%	28%	19.6%	1.41 h	–
Triton X-100 [1% Triton X-100]	–	–	–	–	5.93 h
